Here are results for 16 molecules from publication PMC8707145, “Synthesis, Molecular Docking and Antiplasmodial Activities of New Tetrahydro-β-Carbolines” (International Journal of Molecular Sciences, 2021).

The structures appear in SMILES notation.

The test system of series [1] is P. falciparum D10 (CQ-sensitive) strain. Kind of series: P. falciparum drug susceptibility assay (pLDH), D10 strain. Type of series: cell-based. The settings on record: Plasmodium falciparum; D10 (CQ-sensitive) strain, 72 h, pLDH; read-out: P. falciparum IC50 D10. The procedure: Plasmodium falciparum cultures were established according to the method of Trager and Jensen, with slight modifications. […] Drugs were introduced into 96-well flat-bottomed microplates and serial dilutions made. […] Parasite growth was determined spectrophotometrically (OD650) by measuring the activity of parasite lactate dehydrogenase (pLDH), according to a modified version of the method of Makler, in both control and drug-treated cultures.

Series [2] concerns P. falciparum W2 (CQ-resistant) strain. Kind of series: P. falciparum drug susceptibility assay (pLDH), W2 strain. Type of series: cell-based, Plasmodium falciparum. The settings on record: for IC50: Plasmodium falciparum, W2 (CQ-resistant) strain, 72 h, pLDH, read-out: P. falciparum IC50 W2; for RI (resistance index): RI = IC50 CQ resistant P. falciparum strain/IC50 CQ sensitive P. falciparum strain. On the procedure:
Plasmodium falciparum cultures were established according to the method of Trager and Jensen, with slight modifications. The CQ-susceptible strain, D10, and the CQ-resistant strain, W2, were maintained in human type A-positive red blood cells at 5% hematocrit in RPMI 1640 medium with the addition of 1% AlbuMax, 0.01% hypoxanthine, 20 mM Hepes, and 2 mM glutamine. Cultures were maintained at 37 °C in a gas mixture consisting of 1% O2, 5% CO2, and 94% N2. Compounds were dissolved in DMSO and diluted with medium to achieve the required concentrations (final DMSO concentration <1%, which is non-toxic to the parasite). Drugs were introduced into 96-well flat-bottomed microplates and serial dilutions made. Asynchronous cultures with parasitaemia of 1–1.5% and 1% final hematocrit were aliquoted into the plates and incubated for 72 h at 37 °C. Parasite growth was determined spectrophotometrically (OD650) by measuring the activity of parasite lactate dehydrogenase (pLDH), according to a modified version of the method of Makler, in both control and drug-treated cultures.

The nature of series [3]: Cytotoxicity assay on HMEC-1 cell line (MTT). It counts as cell-based, human. The settings on record: human, HMEC-1 cells; HMEC-1, MTT, 72 h. On the procedure: (§1) The long-term human microvascular endothelial cell line (HMEC-1) was maintained in MCDB 131 medium supplemented with 10% fetal calf serum, 10 ng/mL of epidermal growth factor, 1 µg/mL of hydrocortisone, 2 mM glutamine and 20 mM Hepes buffer. For the cytotoxicity assays, cells were treated with serial dilutions of test compounds and cell proliferation evaluated using the MTT assay. Plates were incubated for 72 h at 37 °C in 5% CO2, then 20 µL of a 5 mg/mL solution of 3-(4,5-dimethylthiazol-2-yl)-2,5-diphenyltetrazolium bromide (MTT) in PBS was added for an additional 3 h at 37 °C. The plates were then centrifuged, the supernatants discarded, and the dark blue formazan crystals dissolved using 100 µL of lysing buffer consisting of 20% (w/v) of a solution of SDS, 40% of N,N dimethylformamide in H2O, at pH 4.7 adjusted with 80% acetic acid. The plates were then read on a microplate reader (Synergy 4 Bio-Tek Instruments, Thermo Fisher Scientific, Waltham, MA, USA) at a test wavelength of 550 nm and a reference wavelength of 650 nm. All the tests were performed in triplicate at least three times.

Series [4] concerns human microvascular endothelial (HMEC-1) cell line. As to the kind of experiment: Cytotoxicity assay on HMEC-1 cell line (MTT). Type of series: cell-based. The settings on record: for SI D10: SI = IC50 HMEC-1/IC50 P. falciparum D10 strain; for SI W2: SI = IC50 HMEC-1/IC50 P. falciparum W2 strain. On the procedure:
as §1

A further series has as its system P. falciparum. The settings on record: read-out: 50% inhibitory concentration (IC50); range of values; no diminished potency against drug-resistant strains; ref [8]; cited from earlier work.
The nature of series [5]: Determination of hemolytic activity. The conditions noted are these: human erythrocytes, released hemoglobin, read-out: level of hemolysis. Type of series: cell-based. On the procedure:
We also sought to investigate the hemolytic potential of the synthetized compounds. […] We incubated these compounds at a concentration of 10 µM, with human erythrocytes, and then, by measuring the released hemoglobin, we assessed their potential harmful effects on these cells. The measured level of hemolysis was less than 5% for all agents, which proves that the compounds are not hemolytic. It is worth emphasizing at this point that this type of test is extremely important to confirm that the observed inhibitory activity against Plasmodium is a result of a compound acting directly upon it and not as a result of red blood cell lysis.
The study protocol was approved by the Bioethics Commission at the Lower Silesian Medical Chamber (1/PNHAB/2018, approval date 14 February 2018), and experiments were performed as previously described. Compounds dissolved in DMSO were added in a volume corresponding to a final concentration of 10 µM in the sample. Negative (erythrocytes in PBS buffer), positive (erythrocytes in distilled water), and DMSO controls were also prepared.

A further series deals with P. falciparum Dd2 strain. Also noted: method as in PMID 29072835. The conditions noted are these: ref [10], read-out: IC50 growth of P. falciparum Dd2 strain; cited from earlier work.

Turning to `O=C(NC1CCCCC1)[C@@H]1Cc2c([nH]c3ccccc23)[C@H](c2ccc(Cl)cc2)N1` (racemic) [1RS,3RS-13, (1SR,3SR)-1-(4-chlorophenyl)-N-cyclohexyl-2,3,4,9-tetrahydro-1H-pyrido[3,4-b]indole-3-carboxamide], in series [1], the IC50 worked out at 16.1 ± 3.36 µM. Further, in series [2], the IC50 turned out to be 13.5 ± 1.99 µM and the “RI (resistance index)” value is reported as 0.84. The IC50 at 72 h in series [3] was 53.8 ± 21.9 µM. In addition, in series [4], the “SI D10” value stood at 3.35 and the “SI W2” value was determined as 4.00.

As for `O=C(NC1CCCCC1)[C@@H]1Cc2c([nH]c3ccccc23)[C@@H](c2ccc(Cl)cc2)N1` (racemic) [1RS,3SR-13, (1RS,3SR)-1-(4-chlorophenyl)-N-cyclohexyl-2,3,4,9-tetrahydro-1H-pyrido[3,4-b]indole-3-carboxamide], in series [1], the IC50 came out at 12.5 ± 0.71 µM. In series [2], the IC50 was determined as 9.13 ± 0.83 µM and the “RI (resistance index)” value was found to be 0.73. Moreover, in series [3], the IC50 at 72 h is greater than 123 µM.

Take `C[C@H]1Cc2c([nH]c3cc(Cl)c(F)cc23)[C@@]2(N1)C(=O)Nc1ccc(Cl)cc12` [Cipargamin]: the IC50 with P. falciparum is 0.0005 to 0.0014 µM.

On to `O=C(NC1CCCCCCC1)C1Cc2c([nH]c3ccccc23)CN1` (centres unmarked) [Compound 2, N-cyclooctyl-2,3,4,9-tetrahydro-1H-pyrido[3,4-b]indole-3-carboxamide], for which the IC50 in series [1] worked out at 21.9 ± 5.82 µM. For the same molecule, in series [2], the IC50 stood at 10.1 ± 2.14 µM and the “RI (resistance index)” value amounted to 0.46.

Take `CC1NC(C(=O)N2CCCCC2)Cc2c1[nH]c1ccccc21` (centres unmarked) [Compound 3, (1-methyl-2,3,4,9-tetrahydro-1H-pyrido[3,4-b]indol-3-yl)(piperidin-1-yl)methanone]: the IC50 in series [1] was 13.2 ± 2.85 µM. Also, in series [2], the IC50 was 9.6 ± 0.78 µM and the “RI (resistance index)” value is listed as 0.73. Also, the hemolysis at 10 µM in series [5] is less than 5%. Also, in series [3], the IC50 at 72 h was determined as 157 ± 42.5 µM. Besides, in series [4], the “SI D10” value was determined as 11.93 and the “SI W2” value amounted to 16.37.

Consider `CC1NC(C(=O)NC2CCCCC2)Cc2c1[nH]c1ccccc21` (centres unmarked) [Compound 4, N-cyclohexyl-1-methyl-2,3,4,9-tetrahydro-1H-pyrido[3,4-b]indole-3-carboxamide], for which the IC50 in series [1] was 21.4 ± 4.7 µM; in series [2], 20.1 ± 2.79 µM. For the same molecule, the “RI (resistance index)” value in series [2] was 0.94.

For `CC1NC(C(=O)NCC2CCCCC2)Cc2c1[nH]c1ccccc21` (centres unmarked) [Compound 5, N-(cyclohexylmethyl)-1-methyl-2,3,4,9-tetrahydro-1H-pyrido[3,4-b]indole-3-carboxamide], the IC50 in series [1] was found to be 33.5 ± 7.58 µM. Further, in series [2], the IC50 stood at 16.2 ± 4.11 µM and the “RI (resistance index)” value is given as 0.48.

Turning to `CCC1NC(C(=O)NC23CC4CC(CC(C4)C2)C3)Cc2c1[nH]c1ccccc21` (centres unmarked) [Compound 6, N-(Adamantan-1-yl)-1-ethyl-2,3,4,9-tetrahydro-1H-pyrido[3,4-b]indole-3-carboxamide], the IC50 in series [1] came out at 9.73 ± 0.96 µM. Further, in series [2], the IC50 was found to be 11.4 ± 0.82 µM and the “RI (resistance index)” value is given as 1.17. In addition, the IC50 at 72 h in series [3] stood at 21.1 ± 8.82 µM. In series [4], the “SI D10” value is listed as 2.17 and the “SI W2” value is on record as 1.86.

On to `CCCCCCCCC1NC(C(=O)NCCC(C)(C)C)Cc2c1[nH]c1ccccc21` (centres unmarked) [Compound 7, N-(3,3-dimethylbutyl)-1-octyl-2,3,4,9-tetrahydro-1H-pyrido[3,4-b]-indole-3-carboxamide], for which, in series [1], the IC50 turned out to be 4.45 ± 0.83 µM. In series [2], the IC50 is 4 ± 0.53 µM and the “RI (resistance index)” value is reported as 0.90. Moreover, the hemolysis at 10 µM in series [5] is less than 5%. The IC50 at 72 h in series [3] was determined as 72 ± 22.4 µM. Also, in series [4], the “SI D10” value is given as 16.18 and the “SI W2” value was 18.00.

With `CC(C)(C)CCNC(=O)C1Cc2c([nH]c3ccccc23)C(c2ccc(Cl)cc2)N1` (centres unmarked) [Compound 8, 1-(4-chlorophenyl)-N-(3,3-dimethylbutyl)-2,3,4,9-tetrahydro-1H-pyrido[3,4-b]indole-3-carboxamide], in series [1], the IC50 is 10.5 ± 1.53 µM. In series [2], the IC50 amounted to 7.8 ± 1.54 µM and the “RI (resistance index)” value was found to be 0.74. In addition, in series [3], the IC50 at 72 h turned out to be 17.9 ± 9.46 µM. Further, in series [4], the “SI D10” value is given as 1.71 and the “SI W2” value was found to be 2.30.

Consider `CC(C)(C)CC(C)(C)NC(=O)C1Cc2c([nH]c3ccccc23)C(c2ccc(Cl)cc2)N1` (centres unmarked) [Compound 9, 1-(4-chlorophenyl)-N-(2,4,4-trimethylpentan-2-yl)-2,3,4,9-tetrahydro-1H-pyrido[3,4-b]indole-3-carboxamide], for which, in series [1], the IC50 is 8.41 ± 1.2 µM. In series [2], the IC50 came out at 6.41 ± 1.05 µM and the “RI (resistance index)” value was 0.76. In series [3], the IC50 at 72 h is 18.9 ± 10.2 µM. In series [4], the “SI D10” value was 2.25 and the “SI W2” value came out at 2.95.

In the case of `O=C(NCC1CCCO1)C1Cc2c([nH]c3ccccc23)C(c2ccc(Cl)cc2)N1` (centres unmarked) [Compound 10, 1-(4-chlorophenyl)-N-((tetrahydrofuran-2-yl)methyl)-2,3,4,9-tetrahydro-1H-pyrido[3,4-b]indole-3-carboxamide], the IC50 amounted to 29.4 ± 7.88 µM in series [1] and 20.5 ± 2.2 µM in series [2]. Besides, the “RI (resistance index)” value in series [2] is given as 0.70.

`O=C(NCC1COCCO1)C1Cc2c([nH]c3ccccc23)C(c2ccc(Cl)cc2)N1` (centres unmarked) [Compound 11, N-((1,4-dioxan-2-yl)methyl)-1-(4-chlorophenyl)-2,3,4,9-tetrahydro-1H-pyrido[3,4-b]indole-3-carboxamide]: the IC50 in series [1] is 35.4 ± 4.86 µM; in series [2], 29.1 ± 4.05 µM. Further, in series [2], the “RI (resistance index)” value was found to be 0.82.

Take `O=C(NCCCN1CCOCC1)C1Cc2c([nH]c3ccccc23)C(c2ccc(Cl)cc2)N1` (centres unmarked) [Compound 12, 1-(4-chlorophenyl)-N-(3-morpholinopropyl)-2,3,4,9-tetrahydro-1H-pyrido[3,4-b]indole-3-carboxamide]: the IC50 in series [1] was 11.5 ± 0.34 µM. Also, in series [2], the IC50 worked out at 6.15 ± 0.46 µM and the “RI (resistance index)” value came to 0.54. Moreover, in series [5], the hemolysis at 10 µM was less than 5%. Further, in series [3], the IC50 at 72 h was determined as 102 ± 14.8 µM. In addition, in series [4], the “SI D10” value was 8.91 and the “SI W2” value is listed as 16.60.

Regarding `O=C(NCC1CCCCC1)C1Cc2c([nH]c3ccccc23)C(c2ccc(Cl)cc2)N1` (centres unmarked) [Compound 14, 1-(4-chlorophenyl)-N-(cyclohexylmethyl)-2,3,4,9-tetrahydro-1H-pyrido[3,4-b]indole-3-carboxamide], the IC50 in series [1] and in series [2] was greater than 47.4 µM in each case.

Regarding `O=C(O)[C@@H]1Cc2c([nH]c3ccccc23)[C@@H](c2ccc(Cl)cc2Cl)N1` [MMV008138], the IC50 with P. falciparum Dd2 strain is 0.25 µM.
